Experimental data as given in patent US20190298840A1, “FORMULATIONS COMPRISING HETEROCYCLIC RING SYSTEMS AND USES THEREOF” (Particle Sciences, Inc., priority 2016, published 2019).
Blank lines part the entries; values can stand above or below the compound they belong to.

Experiments:
rabbit IgG = assay: ELISA with pyridinium-biotin construct on IgG coated, BSA blocked wells vs BSA only wells (FIG. 20); format: binding; details: PBS buffer; femtomole range of construct; avidin-HRP detection
Excerpt: Another variation of ELISA assay is one in which the plate wells are first coated with rabbit IgG. After a wash with PBS buffer, the IgG coated wells are blocked with bovine serum albumin (BSA) to saturate the remaining surface of the wells in order to lower background noise. A set of control wells are coated and blocked with BSA only as described above. The IgG coated and BSA blocked wells are then reacted with pyridinium-biotin construct in PBS buffer. Increasing amounts of with pyridinium-biotin construct in femtomole range are added in different wells. Those wells are washed with PBS buffer and reacted with constant amount of avidin-Horseradish peroxidase (HRP) in PBS. The colorimetric product of the reaction is then detected by an ELISA plate reader.

Immunoglobulin G (IgG) = assay: Microscale thermophoresis binding affinity with IgG (Monolith NT.115); details: construct 500 nM, IgG 12.5 μM-350 pM
Procedure: (§1) Binding affinities of pyridinium constructs with macromolecules were measure using Monolith NT.115 system developed by Nano Temper technology (https://nanotempertech.com/monolith/). The Monolith NT.115 equipment measures the strength of the interactions between a fluorescently labeled or intrinsically fluorescent sample and a binding partner such as a macromolecule are measured while a temperature gradient is applied over time. The molecular mobility of a fluorescently labeled construct in a thermo gradient when alone and in presence of increasing concentrations of binding partner is compared. From this, binding affinity (Kd) is calculated from a fitted curve that plots normalized fluorescence against concentration of ligand.
The experiment was conducted to measure the binding affinity of the pyridinium construct containing fluorescein with increasing concentrations of Immunoglobulin G (IgG) in presence of PBS buffer and saline. The results of the binding affinity curve at increasing concentrations of IgG in two different solutions (PBS & Saline) are shown in FIG. 16.
(§2) The IgG protein was tested at a concentration range of 12.5 μM-350 pM and the pyridinium-fluorescein construct was at a concentration of 500 nM. Likewise, for experiments involving HSA, the HSA protein was at a concentration range of 125 μM-3.5 nM and the pyridinium-fluorescein construct was at a concentration of 500 nM.

[1] = target: human serum albumin (HSA) (Homo sapiens, UniProt P02768); assay: Microscale thermophoresis binding affinity with HSA (Monolith NT.115); details: construct 500 nM, HSA 125 μM-3.5 nM, compared with IgG
Procedure: as §1, §2
The experiment was repeated with human serum albumin (HSA) instead of IgG under similar conditions. The results of the binding affinity curve at increasing concentrations of HSA in two different solutions (PBS & Saline) are shown in FIG. 17.

IgG = IgG binding experiment, free IgG measured after overnight binding (FIG. 10); parameters: species or system human; details: PBS and water conditions
Procedure: Human IgG1 or albumin shall be used as the biomolecule of interest.
In separate trials, the experiment was done in presence of water and PBS buffer solutions. The percentage of unbound IgG and pyridinium bound IgG were determined by measuring the free IgG (protein) after the protein was allowed to bind overnight with pyridinium constructs.

human serum albumin (HSA), sequence (P02768 25-609): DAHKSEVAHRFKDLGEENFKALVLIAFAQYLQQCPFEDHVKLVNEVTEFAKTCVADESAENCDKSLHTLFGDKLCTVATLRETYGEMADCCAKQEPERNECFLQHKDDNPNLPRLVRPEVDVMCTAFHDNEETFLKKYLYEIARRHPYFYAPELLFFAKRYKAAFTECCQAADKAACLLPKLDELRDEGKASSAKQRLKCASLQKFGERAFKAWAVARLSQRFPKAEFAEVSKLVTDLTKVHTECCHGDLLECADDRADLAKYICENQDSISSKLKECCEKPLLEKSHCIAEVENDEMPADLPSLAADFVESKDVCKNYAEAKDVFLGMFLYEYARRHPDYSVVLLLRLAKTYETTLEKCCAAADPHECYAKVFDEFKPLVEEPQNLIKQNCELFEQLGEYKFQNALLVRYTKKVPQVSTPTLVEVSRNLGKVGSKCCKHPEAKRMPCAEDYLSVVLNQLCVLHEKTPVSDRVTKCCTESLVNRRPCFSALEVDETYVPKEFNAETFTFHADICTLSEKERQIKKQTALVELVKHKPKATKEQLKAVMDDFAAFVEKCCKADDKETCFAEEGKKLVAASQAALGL

Compound: O=C(CCCCC1SCC2NC(=O)NC21)NCC[n+]1ccccc1 (stereo not drawn) [pyridinium constructs, 1-(2-(5-(2-oxohexahydro-1H-thieno[3,4-d]imidazol-4-yl)pentanamido)ethyl)pyridinium]
- binding affinity in ELISA, IgG vs BSA dilution curves (rabbit IgG): strong binding affinity of IgG even at lower concentrations when compared with that of BSA

- Kd (Immunoglobulin G (IgG); in PBS): 20 nM
- Kd (Immunoglobulin G (IgG); in saline): 1500 nM
- binding affinity to HSA ([1]; PBS solution): much lower than that of IgG
- binding affinity to HSA ([1]; saline solution): comparable to that of IgG
Compound: O=C(NCC[n+]1ccccc1)c1ccc2c(c1)C1(OC2=O)c2ccc(O)cc2Oc2cc(O)ccc21 [pyridinium-fluorescein construct, 1-(2-(3′,6′-dihydroxy-3-oxo-3H-spiro[isobenzofuran-1,9′-xanthene]-6-ylcarboxamido)ethyl)pyridinium]

Compound: CCCCCCCCCCCCCCCC[N+](C)(C)C.[Br-] [CTAB, Cetyl trimethylammonium bromide]
- binding to IgG (IgG): did not bind to the IgG protein
